Assay results as given in patent US20210060006A1, “COMPOSITIONS AND METHODS FOR TREATING GLIOBLASTOMA BY MODULATING A MGMT ENHANCER” (The Trustees of Columbia University in the City of New York, priority 2018, published 2021).

What was measured:
MGMT [1] = conditions: SAHA in combination with TMZ; cited from earlier work
[2] = test system: SKMG3 parental cells and enhancer deletion clones; experiment: Clonogenic assay of TMZ sensitivity; type: cell-based, human; conditions: for IC50: Homo sapiens
Experimental: Cell viability was determined using clonogenic assay.
FIG. 5F is a summary of TMZ IC50 in SKMG3 clones with or without O6BG pre-treatment.
Clonogenic assays were performed to assess the effect of disrupted enhancer on TMZ sensitivity. Briefly, SKMG3 parental cells and enhancer deletion clones were plated in 6 wells plates (250 cells/well), treated with graded concentration of TMZ in presence or absence of O6BG and were cultured for 2 weeks. Colonies were fixed and stained with crystal violet (0.005% (w/v) Crystal violet, 25% (v/v) Methanol). Colonies with >50 cells were manually counted, IC50 calculated by GraphPad Prism 7 using multiparametric nonlinear regression model.

MGMT [3] = conditions: combination with TMZ compared to TMZ alone; cited from earlier work

## O=C(CCCCCCC(=O)Nc1ccccc1)NO [SAHA]
MGMT [1]
  MGMT expression: promotes elevation of MGMT expression

## Nc1nc(OCc2ccccc2)c2nc[nH]c2n1 [O6BG, O6-benzylguanine]
[2]; group pre-treated with 10 μM O6BG 1 h prior to temozolomide
  TMZ sensitizing effect of enhancer deletion: not observed
MGMT [3]
  clinical benefit: no clinical benefit
  hematologic toxicities: enhanced hematologic toxicities
  therapeutic window: reduced therapeutic window

## Cn1nnc2c(C(N)=O)ncn2c1=O [TMZ, temozolomide]
[2]; K-M enhancer deleted (3.3 kb) SKMG3 clones
  IC50: < 10 µM
[2]; parental SKMG3 lines and wild type control clone
  IC50: > 100 µM
